Data taken from patent US20210386792A1, “A METHOD FOR INCREASING POPULATION OF SPERMATOGONIAL STEM CELLS” (priority 2018, published 2021).

System: DS-iPS EC
Test: GDNF ELISA in conditioned media from Down syndrome iPS-derived ECs
Assay type: cell-based, human
Details: 2 ng/ml FGF-2
Experimental: Testis, lung, or liver ECs were plated (10,000 cells ml^−1) on 12 well dishes coated with 0.1% gelatin and cultured for 24 hours. Conditioned media was harvested at 24 and 48 hours after FGF-2 (2 ng ml^−1, 20 ng ml^−1 and 50 ng ml^−1) treatment and analyzed by ELISA for GDNF (Promega GDNF Emax immunoassay system, #G7621) following the manufacturer's instruction. Statistics was analyzed using Graph Pad Prism. For quantification of Gdnf mRNA, total RNA was isolated from the cells using Direct-zol RNA MiniPrep (Zymo Research) and reverse transcribed using High Capacity cDNA Reverse Transcription Kit (Appliedbiosystems), according to the manufacturer's instructions. All gene expression levels were normalized to GAPDH mRNA levels.
To generate iPSC lines, either human fibroblasts/stromal cells were transduced with pMXs-based retroviral supernatant with human OCT4, SOX2, KLF4, or MYC as described^30, or mononuclear cells were infected with pHage2-CMV-RTTA-W and pHage-Tet-hSTEMMCA-loxP virus as described^31. All cells were culture on 0.1% gelatin-coated dishes in human endothelial cell medium (Lonza; EGM®-MV Bulletkit) with 50 ng ml^−1 additional VEGF. 500,000 disaggregated single embryonic bodies from human iPSCs were cultured for 48 hours. Non-adherent cells were gently removed and adherent cells were cultured for 1-2 passages. […]

## fibroblast growth factor-2 [FGF-2]
  GDNF production after FGF2 treatment: relatively modest induction of GDNF
